Series [1] in a line: Aqueous solubility of the compound. The format is physicochemical. To be noted: buffer.
Series [2] addresses T1, Hepatitis A virus cellular receptor 2 (Homo sapiens, UniProt Q8TDQ0).
T1 sequence (Q8TDQ0 whole entry): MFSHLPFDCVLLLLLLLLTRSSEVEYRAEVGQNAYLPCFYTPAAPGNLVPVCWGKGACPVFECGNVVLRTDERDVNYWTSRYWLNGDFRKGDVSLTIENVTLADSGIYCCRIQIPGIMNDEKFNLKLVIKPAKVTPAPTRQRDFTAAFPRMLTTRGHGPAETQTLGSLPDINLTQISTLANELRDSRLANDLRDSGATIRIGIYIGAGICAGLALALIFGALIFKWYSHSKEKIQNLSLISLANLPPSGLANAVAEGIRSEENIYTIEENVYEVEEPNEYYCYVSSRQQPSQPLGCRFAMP
Description: Binding affinity to human TIM-3 IgV domain (residues 22 to 130) expressed in Escherichia coli BL21 (DE3) by 1H-15N SOFAST-HMQC spectroscopic analysis

Series [3] deals with T1, Hepatitis A virus cellular receptor 2. Put plainly: Displacement of FITC-labelled 5-(((8-Chloro-9-(3-methylpyridin-4-yl)-5-oxo-5,6-dihydro-[1,2,4]triazolo[1,5-c]quinazolin-2-yl)methyl)carbamoyl)-2-(6-hydroxy-3-oxo-3H-xanthen-9-yl)benzoic acid probe from human TIM-3 IgV domain (residues 22 to 130) expressed in Escherichia coli BL21 (DE3) by FPA competition assay.

We go through 10 molecules from ChEMBL document CHEMBL4842382, “Fragment-Based Discovery of Small Molecules Bound to T-Cell Immunoglobulin and Mucin Domain-Containing Molecule 3 (TIM-3)” (J Med Chem, 2021).

For `Cc1nc2c3cc(Br)ccc3[nH]c(=O)n2n1`, in series [1], the solubility result is “Insoluble”.

`CN(C)CCn1c(=S)[nH]c2ccccc2c1=O`: in series [2], binding was put at a Kd of 530 µM.

In turn, `Cc1cccc(Nc2cc(=O)n(C)c(=O)n2C)c1` yielded a Kd in series [2] of 1400 µM. This Kd is about 2.6-fold higher than that of the molecule before.

With `Oc1nc2ccccc2c2nc(-c3ccccc3)nn12`, the Kd in series [2] was > 2000 µM. Further, in series [1], the solubility result is reported as “Insoluble”.

In series [2], `Cc1nc2c3cc(-c4ccncc4C)c(Cl)cc3[nH]c(=O)n2n1` showed a Kd of 10 µM. Further, in series [3], the IC50 amounted to 53 µM and the affinity, expressed as Ki, was 4.9 µM.

Molecule `Cc1cc(-c2nc3ncccc3o2)ccc1N` returned a Kd in series [2] of 460 µM.

For the molecule `Cc1nc2c3cc(-c4ccncc4C)ccc3[nH]c(=O)n2n1`, the solubility entry in series [1] is “Insoluble”.

Regarding `Cc1ccc(Nc2ncnc3c2cnn3C)cc1`, the dissociation constant Kd in series [2] was 850 µM.

As for `Sc1nc2cc(Cl)ccc2[nH]1`, the Kd in series [2] came out at 670 µM.

Turning to `O=C1CC(c2ccccc2)c2cc3c(cc2N1)OCO3` (stereo not drawn), the Kd in series [2] was > 2000 µM.

As a reminder, the Kd is the constant that tells how readily two partners part at equilibrium. Low values mean a tighter complex, high ones a looser complex. In general, IC50 refers to the concentration that inhibits the measured activity by half. One may read the Ki as the equilibrium dissociation constant of an inhibitor or competing ligand from its target. A higher Ki goes with a looser hold on the target.
